Experimental findings from patent publication US20060020036A1, “Methods and compositions to promote bone homestasis” (priority 2004, published 2006) are described below.

“Also recorded” adds a separate entry of the source.

This assay deals with T1, NR1H2 (Homo sapiens, UniProt P55055).
T1 construct: amplification of the complete open reading frame from ATG start codon to the stop codon of drugable genes; expressed in transfected cells; host or cells: primary human mesenchymal progenitor cells (MPCs), transduced with Ad5-NR1H2 and Ad-hCAR
T1 sequence (P55055 1-460): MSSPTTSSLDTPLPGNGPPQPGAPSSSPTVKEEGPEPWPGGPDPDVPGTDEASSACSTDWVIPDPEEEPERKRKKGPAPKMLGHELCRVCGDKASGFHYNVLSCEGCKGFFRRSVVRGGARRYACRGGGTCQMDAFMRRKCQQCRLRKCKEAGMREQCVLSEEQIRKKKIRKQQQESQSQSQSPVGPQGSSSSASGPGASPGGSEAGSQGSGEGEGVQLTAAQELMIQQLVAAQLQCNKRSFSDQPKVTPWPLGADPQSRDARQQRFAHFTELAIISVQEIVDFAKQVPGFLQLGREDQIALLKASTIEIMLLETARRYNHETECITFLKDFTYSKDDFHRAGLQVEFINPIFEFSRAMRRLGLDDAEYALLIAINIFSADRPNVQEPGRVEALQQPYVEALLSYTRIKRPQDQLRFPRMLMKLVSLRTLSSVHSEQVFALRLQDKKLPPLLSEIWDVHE
Nature of the assay: AP assay: MPCs infected with Ad-NR1H2 and treated with ligand. Particulars: ligand at different concentrations. It is filed as cell-based. How it is done:
MPCs are seeded on day0 at 1000 cells per well of a 384 well plate and co-infected the next day using AdC51-hCAR (MOI 250) and different MOIs of Ad5-NR1H3 (MOI 2000, 666). On day 1, 5 concentrations (1E-9M, 1E-8M, 1E-7M, 1E-6M, 1E-5M) of the compound T0901317 (Cayman Chemical, Michigan, USA, Cat. No. 71810) with fixed vehicle concentration (DMSO at final concentration of 0.1%) are added to the wells. After 6 days, medium is removed and replaced with fresh medium containing the same concentrations of the compound T0901317. Readouts of AP activity are performed at several time points after the start of the experiment, typically after 7, 10 and 13 days. Up-regulation of alkaline phosphatase activity is read as follows: medium is removed from the monolayers, 15 μl MUP is added to each well, the plates are incubated for 15 min at 37° C. and then read for AP activity using a fluorescence plate reader (Fluostar, BMG).
MPCs are seeded on day 0 at 1000 cells per well of a 384 well plate and co-infected the next day using AdC51-hCAR (MOI 250) and different MOIs of Ad5-NR1H2 (MOI 2000, 666). […] Readouts of AP activity are performed at several time points after the start of the experiment, typically after 7, 10 and 13 days. Up-regulation of alkaline phosphatase activity is read as follows: medium is removed from the monolayers, 15 μL MUP is added to each well, the plates are incubated for 15 min at 37° C. and then read for AP activity using a fluorescence plate reader (Fluostar, BMG).
MPCs are seeded on day0 at 1000 cells per well of a 384 well plate and co-infected the next day using AdC5′-hCAR (MOI 250) and different MOIs of Ad5-NR1H2 or Ad-NR1H3 (MOI 2000, 6000). […] Readouts of AP activity are performed at several time points after the start of the experiment, typically after 7, 10 and 13 days. Up-regulation of alkaline phosphatase activity is read as follows: medium is removed from the monolayers, 15 μl MUP is added to each well, the plates are incubated for 15 min at 37° C. and then read for AP activity using a fluorescence plate reader (Fluostar, BMG).
For `O=S(=O)(c1ccccc1)N(CC(F)(F)F)c1ccc(C(O)(C(F)(F)F)C(F)(F)F)cc1` [T0901317, N-(2,2,2-trifluoroethyl)-N-[4-[2,2,2-trifluoro-1-hydroxy-1-(trifluoromethyl)ethyl]phenyl]-benzenesulfonamide], the “up-regulation of endogenous alkaline phosphatase (AP) activity, dose-response” value is “dose-response relation is observed; also recorded: AP activity is up-regulated; also recorded: Dose-dependent up-regulation of AP activity”.
With `CC(=O)Oc1ccc2c(c1)[C@@]1(C)CCC[C@](C)(C(=O)OC(=O)[C@@]3(C)CCC[C@]4(C)c5cc(OC(C)=O)ccc5CC[C@@H]34)[C@@H]1CC2` [APD, acetyl podocarpic dimer], the “up-regulation of endogenous alkaline phosphatase (AP) activity, dose-response” value was “dose-response relation is observed; also recorded: AP activity is up-regulated; also recorded: Dose-dependent up-regulation of AP activity”.
Then `O=C(O)Cc1cccc(OCCCN(Cc2cccc(C(F)(F)F)c2Cl)CC(c2ccccc2)c2ccccc2)c1` [GW3965, 2-(3-(3-(N-(2-chloro-3-(trifluoromethyl)benzyl)-N-(2,2-diphenylethyl)amino)propoxy)phenyl)acetic acid], with “dose-response relation is observed; also recorded: AP activity is up-regulated; also recorded: Dose-dependent up-regulation of AP activity”.
